Test results reported in patent US12492169B2, “Aminopyridine compound and application thereof” (priority 2020, dated 2025).
In brackets after ≈: the same amount, converted by molar mass. Several values for one entry are separate records, joined by “and”; a condition that tells them apart may be missing. Identical values can stand only once. Like-named read-outs stand apart in the source and are kept apart here.

Key:
[1] = Mouse pharmacokinetic evaluation, intraperitoneal injection after oral ABT; type: in vivo; conditions: ip, female CD-1 mice, ABT 50 mg/kg orally 2 hours before, plasma; for AUC: read-out: Concentration Integral AUC; for Cmax: read-out: Peak Concentration Cmax; for Tmax: read-out: Peak Time Tmax
Description: Experimental Purpose: Using female CD-1 mice as test animals, LC/MS/MS was used to measure the plasma drug concentration at different times after intraperitoneal injection of the test compound. To study the pharmacokinetic behavior of the test compound in mice and evaluate its pharmacokinetic characteristics. Drug preparation: An appropriate amount of sample was weighed and then prepared into a clear or suspended solution. Administration scheme: Two healthy female CD-1 mice were taken, purchased from Beijing Vital River Laboratory Animal Technology Co., Ltd., and given a normal diet. The drug was administered through intraperitoneal injection. Operational steps: 2 hours before administration, 1-aminobenzotriazole (ABT) was orally administered (50 mg/kg, 5 mg/mL in normal saline), and after animal administration, about 30 μL of blood was collected at 0.083, 0.25, 0.5, 1, 2, 4, 8, and 24 hours, and placed in commercially available anticoagulant tubes pre-added with EDTA-K2. The tubes were centrifuged for 10 minutes to separate the plasma, and the plasma was stored at −60° C. The content of the target compound in the plasma sample was determined by LC/MS/MS method, and the experimental results are shown in Table 3.

[2] = system: Candida glabrata ATCC15126; test: Minimum inhibitory concentration (MIC) test against fungi; type: cell-based; conditions: ≥50% growth inhibition by eye, three independent experiments
Method: (§1) To test the minimum inhibitory concentration (MIC) and minimum effective concentration (MEC) of the drug against fungi.
(§2) Experimental strains: Candida parapsilosis ATCC 22019; Candida albicans ATCC MYA-2876; Candida albicans WX-CA009; Candida glabrata ATCC15126; Candida tropicalis ATCC 750;
(§3) Test medium: RPMI1640 (containing 0.165 M MOPS, pH7.0)
(§4) On the day of the experiment, the compound in the bottle was dissolved in 100% DMSO to a stock solution concentration of 6.24 mg/mL. Then, the mixture was 10-fold diluted with DMSO to 0.624 mg/mL for use.
(§5) A 2-fold gradient dilution of the compound solution (0.624 mg/mL) was performed using DMSO on a 96-microwell plate (V-bottom) to obtain 100× working solutions (wells 1 to 11). 624, 312, 156, 78, 39, 20, 10, 5, 2.5, 1.25, 0.625 μg/mL. 100% DMSO was used as a positive control (well 12). This was the compound stock plate.
(§6) Candida parapsilosis ATCC 22019 and Candida albicans ATCC MYA-2876; Candida albicans WX-CA009; Candida glabrata ATCC15126; Candida tropicalis ATCC 750 frozen at −80° C. were streaked on SDA plates and incubated aerobically in a 35±2° C. incubator for 24 hours.
(§7) On the day of the experiment, for strains Candida parapsilosis ATCC 22019, Candida albicans ATCC MYA-2876; Candida albicans WX-CA009; Candida glabrata ATCC15126; Candida tropicalis ATCC 750 and Cryptococcus neoformans H99 ATCC 208821, the plates were taken out and the clones on the plates were picked, suspended in normal saline, and then the turbidity of the fungal suspension was adjusted to OD600=0.2 using a turbidimeter. The fungal suspension contained about 3.0×10^6 CFU/mL. Then the turbidity-adjusted fungal suspension was diluted with a test medium to a concentration of about 3.0×10^3 CFU/mL. This was the inoculum.
(§8) 2 μL of 100× working solution from the compound stock plate (prepared in 3.1) was transferred to a round-bottomed 96-well plate (containing 98 μL of test medium), and then 100 μL of fungus inoculum (prepared in 3.2) was added to each well to obtain a MIC test plate. Therefore, the final test concentrations of the compounds were 6.24, 3.12, 1.56, 0.78, 0.39, 0.20, 0.10, 0.05, 0.025, 0.0125, 0.006 μg/mL. 1% DMSO was used as a growth control.
(§9) For strains Candida parapsilosis ATCC 22019; Candida albicans ATCC MYA-2876; Candida albicans WX-CA009; Candida glabrata ATCC15126; Candida tropicalis ATCC 750, all test plates were incubated aerobically in a 35±2° C. incubator for 24 hours.
(§10) After incubation, according to the criteria in Table 1 below, the test plate was observed by eye or microscope to determine the MIC (g/mL) and MEC (g/mL) of the test compound against yeast and mold.

[3] = system: Candida tropicalis ATCC 750; test: as above; type: cell-based; conditions: ≥50% growth inhibition by eye, three independent experiments
Method: as §1, §2, §3, §4, §5, §6, §7, §8, §9, §10

[4] = system: Candida albicans WX-CA009; test: as above; type: cell-based; conditions: ≥50% growth inhibition by eye, three independent experiments
Method: as §1, §2, §3, §4, §5, §6, §7, §8, §9, §10

[5] = system: Candida parapsilosis ATCC 22019; test: as above; type: cell-based; conditions: ≥50% growth inhibition by eye, three independent experiments (1st, 2nd, 3rd time)
Method: as §1, §2, §3, §4, §5, §6, §7, §8, §9, §10

[6] = system: Aspergillus flavus ATCC MYA-1004; test: Minimum effective concentration (MEC) test against fungi; type: cell-based; conditions: change of hyphae morphology by microscope, 48 hours, three independent experiments
Method: as §1
(§11) Aspergillus fumigatus ATCC-MYA-4609; Aspergillus flavus ATCC MYA-1004
as §3, §4, §5
(§12) Aspergillus fumigatus ATCC-MYA-4609; Aspergillus flavus ATCC MYA-1004 frozen at −80° C. were streaked on SDA plates and incubated aerobically in a 30±2° C. incubator for 6 days.
(§13) For strains Aspergillus fumigatus ATCC MYA-4609; Aspergillus flavus ATCC MYA-1004, after taking out the plate, 3 mL of 0.9% normal saline containing 0.1% Tween20 was added to the plate and the spores were gently collected. The spores were counted with a hemocytometer and the spore suspension was adjusted to about 5×10^6 spores/mL. Then the spore suspension was diluted to 0.8 to 1×10^5 spores/mL with a test medium.
as §8
(§14) For mold strains Aspergillus fumigatus ATCC-MYA-4609 and Aspergillus flavus ATCC MYA-1004, all test plates were incubated aerobically in a 35±° C. incubator for 48 hours.
as §10

[7] = system: Aspergillus fumigatus ATCC-MYA-4609; test: as above; type: cell-based; conditions: change of hyphae morphology by microscope, 48 hours, three independent experiments
Method: as §1, §11, §3, §4, §5, §12, §13, §8, §14, §10

[8] = system: Cryptococcus neoformans H99 ATCC 208821; test: Minimum inhibitory concentration (MIC) test against fungi; type: cell-based; conditions: ≥50% growth inhibition by eye, three independent experiments
Method: as §1
Cryptococcus neoformans H99 ATCC 208821;
as §3, §4, §5
Cryptococcus neoformans H99 ATCC 208821 frozen at −80° C. was streaked on SDA plates and incubated aerobically in a 35±2° C. incubator for 48 hours.
as §7, §8
For Cryptococcus neoformans H99 ATCC 208821, all test plates were incubated aerobically in a 35±2° C. incubator for 72 hours.
as §10

[9] = system: Candida albicans ATCC MYA-2876; test: as above; type: cell-based; conditions: ≥50% growth inhibition by eye, three independent experiments
Method: as §1, §2, §3, §4, §5, §6, §7, §8, §9, §10

[10] = system: Candida albicans ATCC MYA-2876; test: Mouse candidemia efficacy model; type: in vivo; conditions: female CD-1 mice infected with Candida albicans ATCC MYA-2876; 26 mg/kg intraperitoneally once a day for 7 days after 50 mg/kg ABT orally; n=5
Method: Experimental animals: female CD-1 mice, 7 weeks old, 27 to 29 g, n=5 or 8;
microbial pathogen: Candida albicans ATCC MYA-2876;
inoculation level and route: 2.0 to 4.0E+05 CFU/mouse, infected by tail vein injection;
treatment: The treatment started at 1 hour after infection. Firstly, ABT was administered orally, and 2 hours later, the test compound was injected intraperitoneally once a day for 7 days in total, with an administration volume of 10 mL/kg.
Observation indicators: Changes in body weight and mortality within 7 days after infection in each group of mice.

in vivo = test: in vivo; set-up: species or system crab-eating macaques
Description: (§15) Experimental Purpose: To evaluate the druggability of the compounds by measuring its pharmacokinetic properties in different animal species.
(§16) Experimental materials: CD-1 mice, Sprague-Dawley strain rats, beagle dogs, and crab-eating macaques.
(§17) Drug preparation: An appropriate amount of sample was weighed and then prepared into a clear or suspended solution.
(§18) Experimental procedure: The animal pharmacokinetic characteristics after intravenous injection and oral administration of the compound were tested using a standard protocol. The candidate compound was prepared as a clear solution (for intravenous injection) or a homogeneous suspension (for oral administration) during the experiment and administered to the animals as a single dose. Whole blood samples were collected at 0.083, 0.25, 0.5, 1, 2, 4, 8, and 24 hours, centrifuged at 3200 g for 10 minutes to separate the supernatant to obtain plasma samples. The plasma concentration was quantitatively analyzed by LC-MS/MS analysis method and pharmacokinetic parameters were calculated, such as peak concentration, peak time, clearance rate, half-life, area under the drug-time curve, etc.

[11] = Pharmacokinetic evaluation in rats (IV, PO); type: in vivo, Sprague-Dawley strain rats; conditions: rat plasma
Description: as §15, §16, §17, §18

[12] = Pharmacokinetic evaluation in dogs (IV, PO); type: in vivo, beagle dogs; conditions: dog plasma
Description: as §15, §16, §17, §18

[13] = Nakaseomyces glabratus, ATCC15126, 24 h, read-out: MIC
[14] = Candida tropicalis, ATCC750, 24 h, read-out: MIC
[15] = Candida albicans, WXCA009, 24 h, read-out: MIC
[16] = Lodderomyces parapsilosis, ATCC22019, 24 h, read-out: MIC
[17] = Cryptococcus neoformans, ATCC208821, 72 h, read-out: MIC
[18] = Candida albicans, 24 h, read-out: MIC

SMILES | AUC ([1]; 26 mpk) | Cmax ([1]; 26 mpk) | Tmax ([1]; 26 mpk) | MIC [2, 13] | MIC [3, 14] | MIC [4, 15] | MIC ([4]; 24 hours) | MIC [5, 16] | MEC [6] | MEC [7] | MIC [8, 17] | MIC [9, 18] | MIC ([9]; 24 hours) | AUC ([1]; 6 mpk) | Cmax ([1]; 6 mpk) | Tmax ([1]; 6 mpk) | further results
Nc1ncccc1C#CCc1ccc(COc2ccccn2)cc1 [WX003] | 27 µM·h | 13.5 µM | 0.5 h | 0.39 µg/mL (≈ 1.24 µM) | 0.0125 µg/mL (≈ 0.0396 µM) | 0.0125 µg/mL (≈ 0.0396 µM) | 0.025 µg/mL (≈ 0.0793 µM) | 0.025 µg/mL (≈ 0.0793 µM) | 0.2 µg/mL and 0.39 µg/mL | 0.1 µg/mL and 0.2 µg/mL | 0.39 µg/mL (≈ 1.24 µM) | – | – | – | – | – | MIC ([2]; 24 hours): 0.78 µg/mL (≈ 2.47 µM)
Nc1ccc(C#CCc2ccc(COc3ccccn3)cc2)c(F)n1 [WX005] | – | – | – | 1.56 µg/mL (≈ 4.68 µM) | – | 0.1 µg/mL (≈ 0.3 µM) | 0.05 µg/mL (≈ 0.15 µM) | 0.2 µg/mL (≈ 0.6 µM) | 3.12 µg/mL | 0.39 µg/mL and 0.2 µg/mL | > 6.24 µg/mL | 0.05 µg/mL (≈ 0.15 µM) | 0.1 µg/mL (≈ 0.3 µM) | – | – | – | MIC ([5]; 24 hours): 0.1 µg/mL (≈ 0.3 µM); MIC ([8]; 72 hours): 6.24 µg/mL (≈ 18.7 µM)
Cc1nc(N)ccc1C#CCc1ccc(COc2ccccn2)cc1 [WX006] | 221 µM·h | 23 µM | 1.5 h | 0.39 µg/mL (≈ 1.18 µM) | 0.0125 µg/mL (≈ 0.0379 µM) | 0.05 µg/mL (≈ 0.152 µM) | 0.025 µg/mL (≈ 0.0759 µM) | 0.05 µg/mL (≈ 0.152 µM) | 0.39 µg/mL and 0.2 µg/mL | 0.1 µg/mL and 0.05 µg/mL | 0.78 µg/mL (≈ 2.37 µM) | 0.025 µg/mL (≈ 0.0759 µM) | 0.0125 µg/mL (≈ 0.0379 µM) | – | – | – | MIC ([3]; 24 hours): 0.025 µg/mL (≈ 0.0759 µM); protection from death caused by candidemia [10]: completely protect
Cc1cc(C#CCc2ccc(COc3ccccn3)cc2)cnc1N [WX007] | – | – | – | 0.78 µg/mL (≈ 2.37 µM) | 0.05 µg/mL (≈ 0.152 µM) | 0.05 µg/mL (≈ 0.152 µM) | – | 0.1 µg/mL (≈ 0.304 µM) | 0.39 µg/mL | 0.39 µg/mL | 1.56 µg/mL (≈ 4.74 µM) | 0.1 µg/mL (≈ 0.304 µM) | – | 64 µM·h | 4.7 µM | 1.5 h | –
Nc1ncc(C#CCc2ccc(COc3ccccn3)cc2)cc1F [WX008] | – | – | – | 0.78 µg/mL (≈ 2.34 µM) | 0.05 µg/mL (≈ 0.15 µM) | 0.05 µg/mL (≈ 0.15 µM) | – | 0.05 µg/mL (≈ 0.15 µM) | 0.39 µg/mL | 1.56 µg/mL | 3.12 µg/mL (≈ 9.36 µM) | 0.05 µg/mL (≈ 0.15 µM) | – | 75 µM·h | 4.7 µM | 4.3 h | –
Nc1ccc(C#CCc2ccc(COc3ccccn3)cc2)c[n+]1COP(=O)(O)O [WX013] | – | – | – | – | – | – | – | – | – | – | – | – | – | – | – | – | time to complete decomposition into the parent drug WX004 (in vivo; crab-eating macaque, crab-eating macaque (monkey)): ≤ 0.5 h; F % (in vivo; monkey, po, 13.5 mg/kg): 89%; time to complete decomposition into the parent drug WX004 [11]: ≤ 0.5 h; time to complete decomposition into the parent drug WX004 [12]: ≤ 0.5 h
